Experimental data as given in patent US20200138854A1, “Method of Detecting and Quantifying Bile Acid from Saliva” (Ironwood Pharmaceuticals, Inc., priority 2017, published 2020).
Values joined by “and” are separate entries in the source; they are usually repeats but may differ in a detail not shown here. Equal entries are not always repeated. Where two headings read alike, the source gives them in different places. Marks after values point to notes of the source that are not given here. Blank lines part the entries; values can stand above or below the compound they belong to.

Legend:
[1] = Frozen (−20° C.) short-term stability in cholestyramine-treated human saliva; details: for Concentration QC-LLOQ / Concentration QC-Mid / Concentration QC-High: run 33; for % Bias / Concentration, Mean / Concentration: −20° C.; for Concentration: individual values
Description: Quality control samples for the evaluation of accuracy and precision and for run acceptance were prepared on the day of sample extraction. QC samples prepared in cholestyramine-treated saliva are to be prepared in small volumes for analysis. Stability for these QC samples would be limited to short-term storage (i.e., 2 days) whereas untreated human saliva would be evaluated for long-term storage.
For stability in cholestyramine-treated human saliva, samples were prepared by spiking cholestyramine-treated human saliva with each analyte at the QC-LLOQ, QC-Low, QC-Mid and QC-High levels. The samples were stored in a −20° C. freezer. After 1 day and 2 days of storage, each sample was extracted in replicates of four for analysis.

[2] = in vivo, 3 h
Description: Saliva samples were collected from 30 subjects from each group (Normal & GERD). All GERD patients were on proton pump inhibitor (PPI) standard therapy and received a PPI dose the morning of the visit to the clinic. Saliva samples were collected for 2 minutes (min) at the following time points: Fasted state in the morning; Various times after eating a hearty breakfast: 1 hour (hr) after meal; 2 hrs after meal; 3 hrs after meal; 4 hrs after meal.
All samples were received frozen, packaged on dry ice, and were stored in a freezer set to maintain a temperature of −80° C. until analysis.
Saliva was collected from human volunteers and then pooled. Aliquots of pooled saliva were stripped of endogenous bile acids by treatment with 2 mg/mL of cholestyramine resin (Sigma Lot No. 1425455V) for 1 hour at 37° C. followed by centrifugation. The treatment/centrifugation cycle was repeated four times for a total of five cycles. After the final treatment, the saliva was pooled for use. […]
Standards were prepared in small volumes on the day of sample extraction and were analyzed in duplicate in each analytical run. […]
The detector was an Applied Biosystems Sciex API-5500 triple quadrupole mass spectrometer. The instrument was equipped with an electrospray ionization source in positive-ion mode and the analytes were monitored in the multiple-reaction-monitoring scan mode. […]

[3] = Long-term (1 month at −20° C. and −80° C.) stability in untreated human saliva; details: for % Bias QC-High / % CV QC-High / Difference from Fresh (%) QC-High / Mean concentration QC-High / Concentration QC-High / Fresh QCs (Batch 34) Mean at Time Zero, QC-High: untreated human saliva; for Concentration QC-High: run 35; for % Bias / Concentration, Mean / Difference from Fresh (%) / Concentration: 1 month; for Concentration: individual values
Description: (§1) For long-term stability in untreated human saliva, samples were prepared by spiking untreated human saliva with each analyte at the QC-Low and QC-High levels. The samples were stored in a −20° C. freezer and in a −80° C. freezer. After 1 month of storage, each sample was extracted in replicates of three for analysis.
(§2) A 100-μL aliquot of sample (calibration standards, quality controls, blanks, and stability samples) was transferred into a 96 well plate, according to a pre-defined layout. […] The plates were covered, vortex-mixed and then centrifuged for 5 minutes at 3200 rpm. Supernatants (350 μL each) were transferred into the corresponding wells of a clean 96 well plate and evaporated to dryness under nitrogen in a Turbovap set to 40° C. The dried residue in each well was reconstituted with 75 μL of 50:50 (v:v) methanol:water.

[4] = 1 month
Description: as §1, §2

[5] = system: conscious, pentagastrin-stimulated fistula dog; details: cited from earlier work
intragastric pH = details: cited from earlier work
[6] = 1 Day at −20° C., nominal 0.500 ng/mL
[7] = 1 Day at −20° C., nominal 8.00 ng/mL
[8] = 1 Day at −20° C., nominal 80.0 ng/mL
[9] = 2 Days at −20° C., nominal 0.500 ng/mL
[10] = 2 Days at −20° C., nominal 8.00 ng/mL
[11] = 2 Days at −20° C., nominal 80.0 ng/mL
[12] = 1 month −20° C. storage, nominal 80.0 ng/mL
[13] = 1 month −80° C. storage, nominal 80.0 ng/mL
[14] = 1 Day, QC-High, nominal 80.0 ng/mL
[15] = 1 Day, QC-LLOQ, nominal 0.500 ng/mL
[16] = 1 Day, QC-Mid, nominal 8.00 ng/mL
[17] = 2 Days, QC-High, nominal 80.0 ng/mL
[18] = 2 Days, QC-LLOQ, nominal 0.500 ng/mL
[19] = 2 Days, QC-Mid, nominal 8.00 ng/mL
[20] = −20° C. Storage, QC-High, nominal 80.0 ng/mL
[21] = −80° C. Storage, QC-High, nominal 80.0 ng/mL

Short-term stability in cholestyramine-treated human saliva [1]: up to 2 days | Stability in Treated Human Saliva [1]: 2 days | Concentration in human saliva samples [2]: 1.65 ng/mL | Long-term stability in untreated human saliva ([3]; at 80° C. (sic)): up to 1 month | Stability in Untreated Human Saliva ([3]; at −20° C.): 1 Month | Stability in Untreated Human Saliva ([3]; at −80° C.): 1 Month
Compound: C[C@H](CCC(=O)O)[C@H]1CC[C@H]2[C@@H]3CC[C@@H]4C[C@H](O)CC[C@]4(C)[C@H]3C[C@H](O)[C@]12C [Deoxycholic Acid, Deoxycholic acid]

Compound: CC(CCC(=O)NCC(=O)O)C1CCC2C3C(O)CC4CC(O)CCC4(C)C3CCC12C (stereo not shown) [Glycochenodeoxycholic Acid, Glycochenodeoxycholic acid]
Long-term stability in untreated human saliva [4]: up to 1 month | Stability in Untreated Human Saliva [4]: 1 Month | % Bias QC-LLOQ [1, 6]: 9.1% | % CV QC-LLOQ [1, 6]: 4.7% | Mean concentration QC-LLOQ [1, 6]: 0.546 ng/mL | Concentration QC-LLOQ [1, 6]: 0.538 ng/mL and 0.551 ng/mL and 0.516 ng/mL and 0.578 ng/mL | % Bias QC-Mid [1, 7]: −2.4% | % CV QC-Mid [1, 7]: 2.4% | Mean concentration QC-Mid [1, 7]: 7.81 ng/mL | Concentration QC-Mid [1, 7]: 7.56 ng/mL and 7.99 ng/mL and 7.92 ng/mL and 7.76 ng/mL | % Bias QC-High [1, 8]: −1.3% | % CV QC-High [1, 8]: 2.2% | Mean concentration QC-High [1, 8]: 78.9 ng/mL | Concentration QC-High [1, 8]: 79.3 ng/mL and 80.9 ng/mL and 76.6 ng/mL and 78.9 ng/mL | % Bias QC-LLOQ [1, 9]: 16.5% | % CV QC-LLOQ [1, 9]: 4.1% | Mean concentration QC-LLOQ [1, 9]: 0.583 ng/mL | Concentration QC-LLOQ [1, 9]: 0.596 ng/mL and 0.597 ng/mL and 0.555 ng/mL and 0.674^a ng/mL | % Bias QC-Mid [1, 10]: 2.1% | % CV QC-Mid [1, 10]: 3.8% | Mean concentration QC-Mid [1, 10]: 8.17 ng/mL | Concentration QC-Mid [1, 10]: 7.71 ng/mL and 8.40 ng/mL and 8.22 ng/mL and 8.33 ng/mL | % Bias QC-High [1, 11]: 0.9% | % CV QC-High [1, 11]: 2.9% | Mean concentration QC-High [1, 11]: 80.8 ng/mL | Concentration QC-High [1, 11]: 78.3 ng/mL and 80.4 ng/mL and 80.3 ng/mL and 84.0 ng/mL | Short-term stability in cholestyramine-treated human saliva [1]: up to 2 days | Stability in Treated Human Saliva [1]: 2 days | % Bias QC-High [3, 12]: −4.9% | % CV QC-High [3, 12]: 2.4% | Difference from Fresh (%) QC-High [3, 12]: −4.4% | Mean concentration QC-High [3, 12]: 76.1 ng/mL | Concentration QC-High [3, 12]: 74.0 ng/mL and 77.4 ng/mL and 76.9 ng/mL | % Bias QC-High [3, 13]: −3.6% | % CV QC-High [3, 13]: 5.0% | Difference from Fresh (%) QC-High [3, 13]: −3.1% | Mean concentration QC-High [3, 13]: 77.1 ng/mL | Concentration QC-High [3, 13]: 80.6 ng/mL and 77.8 ng/mL and 73.0 ng/mL | Fresh QCs (Batch 34) Mean at Time Zero, QC-High ([3]; reference for −20° C. storage, nominal 80.0 ng/mL): 79.6 ng/mL | Fresh QCs (Batch 34) Mean at Time Zero, QC-High ([3]; reference for −80° C. storage, nominal 80.0 ng/mL): 79.6 ng/mL

Compound: COC(=O)Nc1cccc(C)c1CNc1cccn2c(C)c(C)nc12 [BY841, (8-(2-methoxycarbonylamino-6-methyl-phenylmethylamino)-2,3-dimethyl-imidazo [1,2-a]-pyridine)]
intragastric pH [5]: ≤ 6 | pH elevation compared with ranitidine and omeprazole [5]: superior to both ranitidine and omeprazole | effectiveness in comparison with the standard dose of omeprazole (intragastric pH; 50 mg or 100 mg twice daily, Day one of treatment): markedly more effective | potency in comparison with the standard dose of omeprazole (intragastric pH; 50 mg or 100 mg twice daily, following repeated daily administration): at least as potent as omeprazole | intragastric pH (intragastric pH; single 50 mg oral dose): about 6

Compound: CC(CCC(=O)NCC(=O)O)C1CCC2C3CCC4CC(O)CCC4(C)C3CC(O)C12C (stereo not shown) [Glycodeoxycholic Acid, Glycodeoxycholic acid]
Long-term stability in untreated human saliva [4]: up to 1 month | Stability in Untreated Human Saliva [4]: 1 Month | Short-term stability in cholestyramine-treated human saliva [1]: up to 2 days | Stability in Treated Human Saliva [1]: 2 days | % Bias [1, 14]: −5.0% | Concentration, Mean [1, 14]: 76.0 ng/mL | Concentration [1, 14]: 76.0 ng/mL and 78.9 ng/mL and 73.6 ng/mL and 75.5 ng/mL | % Bias [1, 15]: −1.1% | Concentration, Mean [1, 15]: 0.495 ng/mL | Concentration [1, 15]: 0.500 ng/mL and 0.472 ng/mL and 0.488 ng/mL and 0.519 ng/mL | % Bias [1, 16]: −5.0% | Concentration, Mean [1, 16]: 7.60 ng/mL | Concentration [1, 16]: 7.43 ng/mL and 8.14 ng/mL and 7.61 ng/mL and 7.21 ng/mL | % Bias [1, 17]: −6.1% | Concentration, Mean [1, 17]: 75.2 ng/mL | Concentration [1, 17]: 74.0 ng/mL and 73.3 ng/mL and 75.6 ng/mL and 77.7 ng/mL | % Bias [1, 18]: 15.0% | Concentration, Mean [1, 18]: 0.575 ng/mL | Concentration [1, 18]: 0.654^a ng/mL and 0.589 ng/mL and 0.551 ng/mL and 0.599 ng/mL | % Bias [1, 19]: 2.5% | Concentration, Mean [1, 19]: 8.20 ng/mL | Concentration [1, 19]: 7.91 ng/mL and 7.87 ng/mL and 8.54 ng/mL and 8.49 ng/mL | % Bias [3, 20]: −3.9% | Concentration, Mean [3, 20]: 76.9 ng/mL | Difference from Fresh (%) [3, 20]: 0.7% | Concentration [3, 20]: 75.5 ng/mL and 75.9 ng/mL and 79.2 ng/mL | % Bias [3, 21]: −0.1% | Concentration, Mean [3, 21]: 79.9 ng/mL | Difference from Fresh (%) [3, 21]: 4.7% | Concentration [3, 21]: 81.9 ng/mL and 80.0 ng/mL and 77.8 ng/mL | Fresh QCs (Batch 34) Mean at Time Zero ([3]; QC-High, nominal 80.0 ng/mL): 76.3 ng/mL
